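Each compound was tested at five concentrations against cells in 96-well plates for 48 hours. At the GI50, growth is halved. The concentration for full growth arrest is given as TGI.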
Legend:
Test in all cases: NCI-60 cell line screen, 48 h
[1] = test system: NCI-H226 lung
[2] = test system: K-562 leukemia
[3] = test system: EKVX NSCLC
[4] = test system: HS 578T breast
[5] = test system: MALME-3M melanoma
[6] = test system: SK-MEL-5 melanoma
[7] = test system: HT29 colon
[8] = test system: NCI-H23 lung
[9] = test system: ACHN renal
[10] = test system: NCI/ADR-RES ovarian

Structure (SMILES)	TGI [1]	TGI [2]	TGI [3]	TGI [4]	TGI [5]	TGI [6]	TGI [7]	TGI [8]	TGI [9]	TGI [10]	GI50 [1]	GI50 [2]	GI50 [3]	GI50 [4]	GI50 [5]	GI50 [6]	GI50 [7]	GI50 [8]	GI50 [9]	GI50 [10]
CC1(C)CCC2(C(=O)O)C(O)CC3(C)C(=CCC4C5(C)CCC(OC6OCC(O)C(O)C6OC6OCC(O)C(O)C6OC6OCC(O)C(OC7OC(CO)C(O)C(O)C7O)C6O)C(C)(C)C5CCC43C)C2C1 (stereo not given)	> 100 µM	70.6 µM	> 100 µM	> 100 µM	78.4 µM	> 100 µM	> 100 µM	49.7 µM	> 100 µM	> 100 µM										
CCOC(=O)C(Cc1ccccc1)n1c(O)c(/C=N/c2ncc(Cc3ccc(Cl)cc3Cl)s2)sc1=S (stereo not given)	> 100 µM	> 100 µM	> 100 µM	41.1 µM	9.25 µM	4.13 µM	7.7 µM	12.4 µM	> 100 µM	15.1 µM	3.29 µM	2.03 µM	2.07 µM	3.62 µM	2.77 µM	1.52 µM	2.24 µM	1.9 µM	2.92 µM	2.56 µM
Cc1[nH]c(N)nc(=S)c1CCCNc1ccccc1	> 100 µM	> 100 µM	> 100 µM	> 100 µM	99 µM	80 µM	> 100 µM	> 100 µM	> 100 µM	> 100 µM										
Cc1cc(NS(=O)(=O)c2ccc(-c3cnc(C4CC4)o3)cc2)ccc1Cl	17.5 µM	> 100 µM	17.1 µM	11.5 µM	26.5 µM	11.5 µM	3.89 µM	15.6 µM	14.6 µM	12.5 µM	0.985 µM	0.0567 µM	0.557 µM	0.233 µM	12.1 µM	0.253 µM	0.191 µM	0.57 µM	0.586 µM	0.181 µM
C=C(CC)C(=O)c1ccc(OCC(=O)O)c(Cl)c1Cl	45.8 µM	> 100 µM	38.3 µM	45.9 µM	31.7 µM	> 55.7 µM	36.3 µM	> 56.2 µM	> 72.9 µM	> 61.9 µM										
Cc1ccc(/C=C(/C#N)n2nnc3cccc(F)c32)cc1	8.31 µM	> 100 µM	18.7 µM	> 36.8 µM	17.6 µM	4.22 µM	11.9 µM	12 µM	4.46 µM	0.848 µM	1.76 µM	0.168 µM	0.863 µM	0.373 µM	0.488 µM	0.423 µM	0.359 µM	0.461 µM	0.579 µM	0.159 µM
CCN(CC)CCOc1ccc2c(-c3ccccc3)c(-c3ccc(OC)cc3)c(=O)oc2c1	32.5 µM	10.5 µM	20.3 µM	15.5 µM	3.08 µM	3.55 µM	11.4 µM	16.5 µM	20.1 µM	17.5 µM	13.6 µM	2.55 µM	6.14 µM	3.19 µM	1.28 µM	1.77 µM	3 µM	4.11 µM	6.82 µM	4.51 µM
O=C(Nc1nc2ccc(OC(F)(F)F)cc2s1)c1ccc(F)cc1	> 100 µM	> 100 µM	10.6 µM	> 100 µM	8.06 µM	6.6 µM	> 100 µM	8.73 µM	6.18 µM	16.4 µM	2.81 µM	3.58 µM	2.65 µM	3.12 µM	2.93 µM	2.45 µM	3.88 µM	2.9 µM	2.4 µM	3.35 µM
N=C1C(c2nc3ccccc3c(=O)[nH]2)=C(O)CN1c1cccc(Cl)c1	> 100 µM	> 100 µM	> 100 µM	12.3 µM	10.7 µM	7.55 µM	> 100 µM	> 100 µM	> 100 µM	> 100 µM	> 100 µM	1.39 µM	8.29 µM	2.79 µM	1.03 µM	1.26 µM	0.845 µM	4.67 µM	3.4 µM	3.16 µM
Cn1cc(Nc2nccc(-c3ccc4c(c3)CN(C3COC3)CC[C@H]4NC(=O)c3cn(C(C)(C)C)nn3)n2)cn1	> 100 µM	> 100 µM	> 100 µM	> 100 µM	> 100 µM	> 100 µM	> 100 µM	> 100 µM	> 100 µM	> 100 µM	38.9 µM	28 µM	> 100 µM	29.7 µM	38 µM	26.3 µM	33 µM	> 100 µM	66.3 µM	> 100 µM
c1ccc(C2=Nc3ccccc3N3CNN=C23)cc1	> 100 µM	> 100 µM	> 100 µM	> 100 µM	> 100 µM	> 100 µM	> 100 µM	> 100 µM	> 100 µM	> 100 µM	> 100 µM	90.1 µM	47.9 µM	81.8 µM	> 100 µM	63.6 µM	52.2 µM	> 100 µM	> 100 µM	> 100 µM
Cc1cc2c(C(C)C)c(O)c(O)c(/C=N/O)c2c(O)c1-c1c(C)cc2c(C(C)C)c(O)c(O)c(/C=N/O)c2c1O	9.72 µM	5.96 µM	11.4 µM	27.4 µM	20.4 µM	3.82 µM	12.5 µM	5.74 µM	7.45 µM	15.1 µM	2.87 µM	2.07 µM	1.94 µM	2.03 µM	3.91 µM	1.43 µM	3.19 µM	1.92 µM	2.04 µM	3.4 µM
Nc1nc(N)c2c(Cl)c(CNc3ccc(Cl)c(Cl)c3)ccc2n1	33.7 µM	2.97 µM	19.2 µM	11.9 µM	12.8 µM	4.65 µM	10.3 µM	5.43 µM	14 µM	18.7 µM										
CC(C)(Oc1cccc(N2CCC[C@@H](C(=O)N(Cc3ccc(-c4cn[nH]c4)cc3)C3CC3)C2)c1)C(=O)N1CCNCC1	21 µM	18.4 µM	27.9 µM	29.4 µM	24.5 µM	22.1 µM	19.7 µM	28.9 µM	29.6 µM	73.6 µM	5.43 µM	3.5 µM	13.7 µM	5.14 µM	11.8 µM	10.3 µM	6.3 µM	14 µM	16.1 µM	24.1 µM
COC(=O)COc1ccccc1/C=C1/N=C(c2ccccc2)N(c2c(C)n(C)n(-c3ccccc3)c2=O)C1=O	> 100 µM	> 100 µM	> 100 µM	> 100 µM	> 100 µM	> 100 µM	> 100 µM	> 100 µM	> 100 µM	> 100 µM	> 100 µM	75.1 µM	> 100 µM	> 100 µM	> 100 µM	> 100 µM	> 100 µM	> 100 µM	> 100 µM	> 100 µM
Cc1ccc2c(-c3ccnc(Nc4cccc(C(F)(F)F)c4)n3)c(-c3ccccc3)nn2n1	17 µM	> 25 µM	> 25 µM	> 25 µM	> 22.8 µM	7.94 µM	> 15.5 µM	> 25 µM	> 25 µM	> 25 µM	6.01 µM	> 25 µM	10.5 µM	7.13 µM	> 16.4 µM	4.05 µM	2.28 µM	11.8 µM	1.97 µM	8.47 µM
CCc1nc(N)nc(N)c1-c1ccc(N2CCNCC2)c([N+](=O)[O-])c1	> 100 µM	> 90.2 µM	> 100 µM	> 74.2 µM	37.3 µM	28.3 µM	> 100 µM	> 100 µM	> 100 µM	> 100 µM										
